Paper PMC9186412, “Rational Framework for the Design of Trp- and Arg-Rich Peptide Antibiotics Against Multidrug-Resistant Bacteria” (Frontiers in Microbiology, 2022)
Values after ≈ are worked out from the molar mass of the structure shown. Read-outs that look alike come from different tables or passages of the source. Where no end group is shown, it is not given here.

Tests used:
E. Faecium = assay: microbe, parasite or virus in culture; assay type: cell-based, Enterococcus Facium; conditions: Enterococcus faecium, 18 h, MHB2, 18 h, 37°C
Description: (§1) Bacterial clinical isolates, used for initial screening and in previous studies ([Deslouches et al., 2013]; [Lin et al., 2018]), were anonymously provided by the clinical microbiology laboratory of the University of Pittsburgh medical Center. The panel used for secondary screening was from [CDC (2013)] (Supplementary Table 3), with resistance profiles data. Bacteria are stored in lock-secured –80°C freezer and typically retrieved by obtaining single colonies on agar plates prior for subsequent liquid broth cultures. Suspensions of test bacteria were prepared from log phase of growth by diluting overnight cultures at 1:100 with fresh cation-adjusted MHB (MHB2, Millipore Sigma, United States) and incubating for additional 3–4 h. Bacteria were spun at 3,000 × g for 10 min and the pellet resuspended in test condition media (Millipore Sigma, United States) to determine bacterial turbidity using a Den-1B densitometer (Grant Instruments, United States) at 0.5 McFarland (unit of bacterial density) corresponding to […].
(§2) To examine antibacterial activity, we used minor modifications of a standard growth inhibition assay endorsed by the Clinical and Laboratory Standards Institute (CLSI), as previously described ([Deslouches et al., 2013]). Bacteria were incubated with each of the indicated peptides in MHB2. The bacterial cells were kept in an incubator for 18 h at 37°C, which is linked to a robotic system that feeds a plate reader every hour with one of 8 × 96-well plates. This set-up allows the collection of growth kinetic data at A 570 (absorbance at 570 nm) to examine growth inhibition in real time (BioTek Instruments, United States). […] The assays are typically repeated a second time. If the MIC is different, a third experimental trial is performed to confirm the MIC. To assess bactericidal properties of the peptide, the assay was modified by using 15% fetal bovine serum (FBS, for a more physiologically relevant test condition) mixed with 25% MHB2 and 60% PBS. Bacterial cells (colony forming unit/mL or CFU/mL) were enumerated after incubating treated bacteria for 3 h and plating serially diluted samples on broth agar medium at 37°C overnight. Minimum bactericidal concentration (MBC) was determined as the peptide concentration at which complete bacterial killing was observed. […] Data were analyzed using GraphPad Prism software.

CDC AR isolates [1] = test system: CDC AR isolates; design: key: S (green), susceptible; I (blue), intermediate; R (red), resistant; conditions: data provided by the CDC, ref CDC, cited from earlier work
Text: Supplement Table_3.XLSX, sheet "CDC AR isolates profiles" | column: G(-) strains

CDC AR isolates [2] = test system: CDC AR isolates; design: key: S (green), susceptible; I (blue), intermediate; R (red), resistant; conditions: Staphylococcus aureus SA461, CDC AR isolate; data provided by the CDC; ref CDC; cited from earlier work
S. aureus = assay: microbe, parasite or virus in culture; assay type: cell-based; conditions: Staphylococcus aureus, 18 h, MHB2, 18 h, 37°C
Description: as §1, §2

[3] = test system: ESKAPE pathogens and Escherichia coli; conditions: ESKAPE pathogens and
Description: Bacteria were incubated with each of the indicated peptides in MHB2. […] To assess bactericidal properties of the peptide, the assay was modified by using 15% fetal bovine serum (FBS, for a more physiologically relevant test condition) mixed with 25% MHB2 and 60% PBS. […] Data were analyzed using GraphPad Prism software.

CD-1 mice = assay: Mouse toxicity, maximum tolerated dose (IV); assay type: in vivo
Description: For all animal experiments, we used the protocol #18071776 approved by the Institutional Animal Care and Use Committee (IACUC) of the University of Pittsburgh, which is consistent with the NIH guide for the care and use of laboratory animals. In a preliminary (pilot) experiment, female CD-1 mice (three per group) weighing about 20 g were injected different doses of peptides up to 45mpk via a lateral tail vein (IV) to determine an MTD (dose that results in no apparent morbidity or mortality). To confirm the MTD determined in the pilot study, CD-1 mice (seven per group) were randomized to receive a dose based on the preliminary MTD (IV) or PBS (100 μL). The animals were monitored for up to 7 days for morbidity and survival.

K. pneumoniae = assay: microbe, parasite or virus in culture; assay type: cell-based, Klebsiella pneumoniae; conditions: 18 h
Description: as §1, §2

Enterobacter spp = assay: microbe, parasite or virus in culture; assay type: cell-based, Enterobacter spp (aerogenes, cloacae); conditions: Enterobacter, 18 h, UPMC, MHB2, 18 h, 37°C
Description: as §1, §2

P. aeruginosa = assay: microbe, parasite or virus in culture; assay type: cell-based, Pseudomonas aeruginosa; conditions: Pseudomonas aeruginosa, 18 h, MHB2, 18 h, 37°C
Description: as §1, §2

E. coli = assay: microbe, parasite or virus in culture; assay type: cell-based, Escherichia coli; conditions: Escherichia coli, 18 h, MHB2, 18 h, 37°C
Description: as §1, §2

A. baumannii = assay: microbe, parasite or virus in culture; assay type: cell-based, Acinetobacter baumannii; conditions: Acinetobacter baumannii, 18 h, MHB2, 18 h, 37°C
Description: as §1, §2

[4] = Enterobacter cloacae E62, CDC AR isolate
[5] = Enterobacter cloacae E544, CDC AR isolate
[6] = Enterobacter cloacae E545, CDC AR isolate
[7] = Enterobacter cloacae E546, CDC AR isolate
[8] = Escherichia coli EC541, CDC AR isolate
[9] = Escherichia coli EC543, CDC AR isolate
[10] = Escherichia coli EC544, CDC AR isolate
[11] = Escherichia coli EC549, CDC AR isolate
[12] = Klebsiella pneumoniae KP542, CDC AR isolate
[13] = Klebsiella pneumoniae KP548, CDC AR isolate
[14] = Klebsiella pneumoniae KP550, CDC AR isolate
[15] = Klebsiella pneumoniae KP552, CDC AR isolate

## Cc1onc(-c2ccccc2)c1C(=O)N[C@@H]1C(=O)N2[C@@H]1SC(C)(C)[C@@H]2C(=O)O [Oxacillin, reference compound]
E. Faecium; strain EF23614, UPMC
  MIC: 0.25 µM (≈ 0.1 µg/mL)
E. Faecium; strain EF24670, UPMC
  MIC: > 16 µM
E. Faecium; strain EF26215, UPMC
  MIC: 2 µM (≈ 0.803 µg/mL)
E. Faecium; strain EF26692, UPMC
  MIC: 2 µM (≈ 0.803 µg/mL)
CDC AR isolates [1]; Staphylococcus aureus SA462, CDC AR isolate
  Antibiotic susceptibility profile: S
CDC AR isolates [1]; Staphylococcus aureus SA463, CDC AR isolate
  Antibiotic susceptibility profile: S
CDC AR isolates [1]; Staphylococcus aureus SA561, CDC AR isolate
  Antibiotic susceptibility profile: R
CDC AR isolates [2]
  Antibiotic susceptibility profile: S
S. aureus; strain SA12212, UPMC
  MIC: 8 µM (≈ 3.21 µg/mL)
S. aureus; strain SA18710, UPMC
  MIC: 4 µM (≈ 1.61 µg/mL)
S. aureus; strain SA49775
  MIC: 0.25 µM (≈ 0.1 µg/mL)
S. aureus; strain SA-US300
  MIC: 4 µM (≈ 1.61 µg/mL)

## CC(C)C[C@H](NC(=O)[C@H](Cc1ccccc1)NC(=O)[C@@H]1CCCN1C(=O)[C@H](Cc1c[nH]c2ccccc12)NC(=O)[C@H](Cc1c[nH]c2ccccc12)NC(=O)[C@H](Cc1c[nH]c2ccccc12)NC(=O)[C@@H]1CCCN1C(=O)[C@H](Cc1ccccc1)NC(=O)[C@H](CCCNC(=N)N)NC(=O)[C@H](CCCNC(=N)N)NC(=O)[C@@H](N)C(C)C)C(=O)N[C@@H](CCCNC(=N)N)C(=O)N[C@@H](CCCNC(=N)N)C(=O)O [tritrpticin]
[3]
  mean MIC: > 10 µM

## H-RWVRRVRRVWRRVRRVVRRW-OH [E7]
other
  % RBC lysis: 5%

## Cc1nnc(SCC2=C(C(=O)O)N3C(=O)[C@@H](NC(=O)Cn4cnnn4)[C@H]3SC2)s1 [Cefazolin, reference compound]
E. Faecium; strain EF23614, UPMC
  MIC: > 16 µM
E. Faecium; strain EF24670, UPMC
  MIC: > 16 µM
E. Faecium; strain EF26215, UPMC
  MIC: 4 µM (≈ 1.82 µg/mL)
E. Faecium; strain EF26692, UPMC
  MIC: 4 µM (≈ 1.82 µg/mL)
CDC AR isolates [1]; [4]
  Antibiotic susceptibility profile: R
CDC AR isolates [1]; [5]
  Antibiotic susceptibility profile: R
CDC AR isolates [1]; [6]
  Antibiotic susceptibility profile: R
CDC AR isolates [1]; [7]
  Antibiotic susceptibility profile: R
CDC AR isolates [1]; [8]
  Antibiotic susceptibility profile: R
CDC AR isolates [1]; [9]
  Antibiotic susceptibility profile: R
CDC AR isolates [1]; [10]
  Antibiotic susceptibility profile: R
CDC AR isolates [1]; [11]
  Antibiotic susceptibility profile: R
CDC AR isolates [1]; [12]
  Antibiotic susceptibility profile: R
CDC AR isolates [1]; [13]
  Antibiotic susceptibility profile: R
CDC AR isolates [1]; [14]
  Antibiotic susceptibility profile: R
CDC AR isolates [1]; [15]
  Antibiotic susceptibility profile: R
S. aureus; strain SA12212, UPMC
  MIC: 16 µM (≈ 7.27 µg/mL)
S. aureus; strain SA18710, UPMC
  MIC: 16 µM (≈ 7.27 µg/mL)
S. aureus; strain SA49775
  MIC: 2 µM (≈ 0.909 µg/mL)
S. aureus; strain SA-US300
  MIC: 8 µM (≈ 3.64 µg/mL)

## RRVWRWVRRVWRWVRR [E35]
other
  % RBC lysis: 22%
CD-1 mice; 7 CD-1 mice, 30 mpk systemically, monitored up to 7 days
  morbidity and mortality: no apparent morbidity and mortality
CD-1 mice; CD-1 mice, tail vein (IV), pilot with doses up to 45 mg/kg
  tolerated systemic dose (maximum tolerated dose, MTD): up to 30 mpk

## RRVVRRWRRVVRRWVRVWRRVVRR [E3]
other
  % RBC lysis: 17%
K. pneumoniae
  MIC: 8 µM

## CC(C)(O/N=C(\C(=O)N[C@@H]1C(=O)N2C(C(=O)[O-])=C(C[n+]3ccccc3)CS[C@H]12)c1csc(N)n1)C(=O)O [Ceftazidime, reference compound]
E. Faecium; strain EF23614, UPMC
  MIC: 8 µM (≈ 4.37 µg/mL)
E. Faecium; strain EF24670, UPMC
  MIC: > 16 µM
K. pneumoniae; Klebsiella pneumoniae, strain KP43816, MHB2, 18 h, 37°C
  MIC: 1 µM (≈ 0.547 µg/mL)
K. pneumoniae; Klebsiella pneumoniae, strain KPA5 (colistin-resistant), UPMC, MHB2, 18 h, 37°C
  MIC: 12 µM (≈ 6.56 µg/mL)
K. pneumoniae; Klebsiella pneumoniae, strain KPB3, UPMC, MHB2, 18 h, 37°C
  MIC: 8 µM (≈ 4.37 µg/mL)
K. pneumoniae; Klebsiella pneumoniae, strain KPC3, UPMC, MHB2, 18 h, 37°C
  MIC: > 16 µM
Enterobacter spp; strain EA518 (aerogenes)
  MIC: > 16 µM
Enterobacter spp; strain EA596 (aerogenes)
  MIC: > 16 µM
Enterobacter spp; strain EC470 (cloacae)
  MIC: > 16 µM
Enterobacter spp; strain EC560 (cloacae)
  MIC: > 16 µM
CDC AR isolates [1]; Acinetobacter baumannii AB273, CDC AR isolate
  Antibiotic susceptibility profile: R
CDC AR isolates [1]; Acinetobacter baumannii AB274, CDC AR isolate
  Antibiotic susceptibility profile: R
CDC AR isolates [1]; Acinetobacter baumannii AB275, CDC AR isolate
  Antibiotic susceptibility profile: R
CDC AR isolates [1]; Acinetobacter baumannii AB276, CDC AR isolate
  Antibiotic susceptibility profile: R
CDC AR isolates [1]; [4]
  Antibiotic susceptibility profile: S
CDC AR isolates [1]; [5]
  Antibiotic susceptibility profile: S
CDC AR isolates [1]; [6]
  Antibiotic susceptibility profile: S
CDC AR isolates [1]; [7]
  Antibiotic susceptibility profile: S
CDC AR isolates [1]; [8]
  Antibiotic susceptibility profile: S
CDC AR isolates [1]; [9]
  Antibiotic susceptibility profile: S
CDC AR isolates [1]; [10]
  Antibiotic susceptibility profile: S
CDC AR isolates [1]; [11]
  Antibiotic susceptibility profile: S
CDC AR isolates [1]; [12]
  Antibiotic susceptibility profile: R
CDC AR isolates [1]; [13]
  Antibiotic susceptibility profile: R
CDC AR isolates [1]; [14]
  Antibiotic susceptibility profile: R
CDC AR isolates [1]; [15]
  Antibiotic susceptibility profile: S
CDC AR isolates [1]; Pseudomonas aeruginosa PA229, CDC AR isolate
  Antibiotic susceptibility profile: R
CDC AR isolates [1]; Pseudomonas aeruginosa PA230, CDC AR isolate
  Antibiotic susceptibility profile: R
CDC AR isolates [1]; Pseudomonas aeruginosa PA231, CDC AR isolate
  Antibiotic susceptibility profile: R
CDC AR isolates [1]; Pseudomonas aeruginosa PA232, CDC AR isolate
  Antibiotic susceptibility profile: S
CDC AR isolates [1]; Pseudomonas aeruginosa PA239, CDC AR isolate
  Antibiotic susceptibility profile: R
P. aeruginosa; strain PA97-5, UPMC
  MIC: 1 µM (≈ 0.547 µg/mL)
P. aeruginosa; strain PA129-5, UPMC
  MIC: 2 µM (≈ 1.09 µg/mL)
E. coli; strain Eco25922
  MIC: 1 µM (≈ 0.547 µg/mL)
E. coli; strain YDC107, UPMC
  MIC: 4 µM (≈ 2.19 µg/mL)
E. coli; strain YDC337, UPMC
  MIC: > 16 µM
E. coli; strain YDC748, UPMC
  MIC: > 16 µM
A. baumannii; strain AB-A2, UPMC clinical strain, A570, confirmed by 2nd or 3rd trial
  MIC: 1 µM (≈ 0.547 µg/mL)
A. baumannii; strain AB-A3, UPMC
  MIC: > 16 µM
A. baumannii; strain AB-F8, UPMC
  MIC: > 16 µM
A. baumannii; strain AB-F9, UPMC
  MIC: 2 µM (≈ 1.09 µg/mL)
